In patent publication US6888015B2, “Sphingolipid synthesis inhibitor” (Japan Science and Technology Agency, priority 2001, dated 2005):

Columns and labels:
[1] = tested on: de novo synthesis of SM in CHO cells; assay: Metabolic labeling of lipids with [14C]serine in CHO cells; type: cell-based, Chinese hamster; details: for inhibition of de novo SM synthesis (stereoisomers): [14C]serine labeling (FIG. 6B)
Procedure: (§1) CHO cells are cultured in Ham's F12 medium supplemented with 10% newborn bovine serum (NBS), penicillin G (100 unit/mL) and streptomycin sulfate (100 μg/mL) at the temperature of 33° C. and 5% CO2 atmosphere. In the case of HeLa cells, Dulbecco's minimum essential medium is used as a base medium instead of Ham's F12 medium.
Further, Nutridoma medium (Ham's F12 medium containing 1% Nutridoma-SP, product of Roche Molecular Biochemicals, and 25 μg/mL of gentamicin) is used as a serum-free medium. In the case when the medium is supplemented by DMSO or drugs dissolved in DMSO, the concentration of DMSO in culture medium is adjusted to be 0.01%.
CHO cells are seeded at the density of 1.0×10^6 cell in 5 mL of F12 medium containing 10% NBS, by per 60-mm dish, and cultured at 33° C. overnight. Then, the medium is changed to 1.5 mL of Nutridoma medium if necessary, various drugs are added and incubated at 4° C. for 15 minutes. Then, after addition of [^14C] serine (0.75 μCi) or [^14 C] choline (1.0 μCi) to the medium, cells were incubated at 33° C. for various periods of time.
Cells are washed twice with 2 mL of cold phosphate-buffered saline (PBS), and lysed with 900 μL of 0.1% sodium dodecyl sulfate (SDS). Then, 800 μL and 20 μL of lysate are used for lipid extraction and determination of protein concentration, respectively.
For the analysis of lipids labeled with [C^14C] serine, lipids were separated by TLC with a solvent consisting of methylacetate/n-propanol/chloroform/methanol/0.25%KCl (25:25:25:10:9, volume ratio) as a developing solvent.
Radioactive lipid separated on the TLC plates are detected with image analyzer depicted above. After the collection of gels from TLC plates by scraping, the radioactivity of each lipid is determined by liquid scintillation counting and normalized to the protein concentration of cells.

[2] = tested on: synthesis of SM in HeLa cells; assay: De novo synthesis of SM in HeLa cells; type: cell-based; details: FIG. 6D
Procedure: as §1

[3] = tested on: protein trafficking from the ER to the Golgi apparatus; assay: Glycoprotein (PLAP-HA) transport from the ER to the Golgi apparatus; type: cell-based, Chinese hamster; details: 2.5 μM; CHO-K1 transformant expressing PLAP-HA (FIG. 7)

Row | SMILES | inhibitory activity on the Cer-to-SM conversion among four stereoisomers ([1]; FIG. 6B, 6C) | inhibition of de novo SM synthesis (stereoisomers) [1] | synthesis of SM in HeLa cells [2] | maturation rate of newly synthesized PLAP-HA to an EndoH-resistant form [3] | formation of [14C]SM ([1]; 2.5 μM drug, [14C]serine labeling, CHO cells (FIG. 1B))
1 | CCCCCCCCCCCC(=O)N[C@@H](CO)C[C@@H](O)c1ccccc1 [(1R, 3R)-HPA-12] | strongest inhibitory activity | strongly | inhibits | not affected | 
2 | CCCCCCCCCCCC(=O)N[C@H](CO)C[C@H](O)c1ccccc1 [(1S, 3S)-HPA-12] |  | moderately |  |  | 
3 | CCCCCCCCCCCCCCCC(=O)NC(CO)CC(O)c1ccccc1 (stereo not drawn) [HPA-16] |  |  |  |  | less than that of HPA-12
